Data as given in paper PMC10987348, “Ammonium nanochelators in conjunction with arginine-specific enzymes in amperometric biosensors for arginine assay” (Mikrochimica Acta, 2023).

Biological target: T1, ADI (Metamycoplasma hominis, UniProt P41141)
T1 construct: gene arcA
Test: amperometric detection of released ammonium (ADI/nCdCu/GCE electrode)
Format: biochemical
Settings: immobilised enzyme on nCdCu-modified glassy carbon; pH 7.5; -200 mV vs Ag/AgCl

T1 sequence (P41141 2-409): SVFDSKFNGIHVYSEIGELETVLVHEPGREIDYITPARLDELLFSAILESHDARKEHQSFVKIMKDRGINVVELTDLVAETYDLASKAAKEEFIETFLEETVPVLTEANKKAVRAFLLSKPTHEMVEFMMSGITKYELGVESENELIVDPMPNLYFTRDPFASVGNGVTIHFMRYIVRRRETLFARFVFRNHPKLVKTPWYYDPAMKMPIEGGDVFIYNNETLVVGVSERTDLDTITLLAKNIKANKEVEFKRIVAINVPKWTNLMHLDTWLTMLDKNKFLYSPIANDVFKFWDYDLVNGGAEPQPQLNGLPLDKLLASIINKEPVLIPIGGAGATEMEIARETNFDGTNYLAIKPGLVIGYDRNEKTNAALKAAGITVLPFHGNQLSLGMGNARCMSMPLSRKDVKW

SMILES: N=C(N)NCCC[C@H](N)C(=O)O [L-arginine]
- amperometric detection of released ammonium (ADI/nCdCu/GCE electrode): electrocatalytic activity of three bioelectrodes was evaluated by using CV under the addition of Arg
